In US5939096A, “Liposome drug-loading method and composition” (priority 1997, dated 1999):
Read-outs that look alike come from different tables or passages of the source.

How the values were obtained:
[1] = Loading and calcium ionophore (A23187)-promoted release of entrapped nalidixic acid
Experimental: (FIG. 8, solid line) and 60° C. (broken line), respectively.
The experiment was carried out at two different temperatures to investigate how changes in lipid phase (i.e., gel versus liquid-crystalline) affects the penetration of molecules into the bilayer. When the suspension was incubated at 25° C.
A calcium ionophore, A23187, (10 micromolar) was added at either t=700 s (25° C.; FIG. 8--solid line) or at 350 s (60° C.; FIG. 8--broken line), and the fluorescence was monitored over the course of the experiment.

[2] = Table II; cited from earlier work
[3] = Permeability coefficient in HPC/cholesterol extruded vesicles; details: not told, permeability coefficient P, 60/40 HPC/cholesterol extruded vesicles (Table II)
Experimental: ^e in 60/40 (mol/mol) HPC/cholesterolextruded vesicles, at 25°
^e in 60/40 (mol/mol) HPC/cholesterolextruded vesicles.

[4] = not told, cited from earlier work
[5] = n-octanol/water, cited from earlier work
[6] = pH 9

CCn1cc(C(=O)O)c(=O)c2ccc(C)nc21 [nalidixic acid]
loading t1/2 ([1]; 25° C.): 84 s
loading t1/2 ([1]; 60° C.): 7 s
enhancement of loading rate ([1]; 60° C. versus 25° C.): one order of magnitude
pKa [2]: 6.13
Papp ([3]; 25° C.): 0.014 ×10⁻⁶ cm/s
Papp ([3]; 60° C.): 0.17 ×10⁻⁶ cm/s

5(6)-carboxyfluorescein
permeability coefficient P ([4]; pH 7): 8.1e-05 ×10⁻⁶ cm/s
permeability coefficient P ([4]; pH 8.2): 7.2e-07 ×10⁻⁶ cm/s
partition coefficient Kp ([5]; pH 6.9): 2.8 × 10^-3
partition coefficient Kp ([5]; pH 8): 6.0 × 10^-5

O=S(=O)(O)c1cc(O)c2ccc3c(S(=O)(=O)O)cc(S(=O)(=O)O)c4ccc1c2c34 [pyranine, 8-Hydroxypyrene-1,3,6-trisulfonic acid]
n-octanol/water partition coefficient Kp [6]: < 3 × 10^-5
